Active and inactive are the calls of the source.
Experiments:
[1] = target: Genome polyprotein (dengue virus type 2, UniProt P29990); experiment: flavivirus cap methylation enzyme inhibition – biochemical, confirmation dose response, primary screen (AID 588689); assay type: functional
[2] = target: T1, Aminopeptidase N (Plasmodium falciparum FcB1/Columbia, UniProt O96935); experiment: malaria alanyl aminopeptidase activity blockers – biochemical, fluorogenic H-Leu-NHMec substrate, 1536-well (AID 1445); parameters: species or system Plasmodium falciparum 3D7, 3D7
T1 sequence (O96935 whole entry): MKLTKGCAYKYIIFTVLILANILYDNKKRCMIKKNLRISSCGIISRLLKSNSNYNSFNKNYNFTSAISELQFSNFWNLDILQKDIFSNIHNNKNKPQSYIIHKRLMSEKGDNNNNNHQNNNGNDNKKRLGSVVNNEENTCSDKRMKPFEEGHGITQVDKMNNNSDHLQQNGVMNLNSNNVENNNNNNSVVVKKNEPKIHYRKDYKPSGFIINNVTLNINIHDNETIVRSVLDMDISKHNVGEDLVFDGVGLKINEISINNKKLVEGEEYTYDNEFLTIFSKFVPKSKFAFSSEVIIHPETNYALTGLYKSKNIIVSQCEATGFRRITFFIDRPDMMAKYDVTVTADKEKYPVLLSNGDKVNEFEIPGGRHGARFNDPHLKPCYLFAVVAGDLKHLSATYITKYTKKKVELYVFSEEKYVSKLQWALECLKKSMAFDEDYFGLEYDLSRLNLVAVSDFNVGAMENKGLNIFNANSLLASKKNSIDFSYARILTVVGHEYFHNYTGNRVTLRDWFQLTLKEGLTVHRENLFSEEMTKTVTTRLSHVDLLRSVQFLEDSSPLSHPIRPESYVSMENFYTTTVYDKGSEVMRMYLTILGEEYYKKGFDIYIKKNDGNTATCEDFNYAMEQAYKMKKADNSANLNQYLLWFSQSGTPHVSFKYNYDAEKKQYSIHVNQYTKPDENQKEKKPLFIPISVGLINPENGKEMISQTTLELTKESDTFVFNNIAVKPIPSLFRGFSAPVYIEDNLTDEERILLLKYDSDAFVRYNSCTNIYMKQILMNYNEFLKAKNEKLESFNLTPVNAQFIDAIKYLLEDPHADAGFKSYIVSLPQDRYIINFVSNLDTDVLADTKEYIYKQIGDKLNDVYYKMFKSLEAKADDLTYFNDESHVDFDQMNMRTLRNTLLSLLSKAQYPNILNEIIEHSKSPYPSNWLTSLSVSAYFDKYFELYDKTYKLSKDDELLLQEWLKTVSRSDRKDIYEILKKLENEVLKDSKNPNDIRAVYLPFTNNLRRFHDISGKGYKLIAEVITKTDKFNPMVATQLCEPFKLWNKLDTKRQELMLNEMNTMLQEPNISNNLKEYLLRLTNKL

[3] = tested on: HEK293; experiment: EBV LMP1 TES2 canonical NF-kB signalling blockers – cell-based, HEK293, luciferase, cherry-pick, dose response (AID 588343); assay type: functional; settings: Homo sapiens
[4] = tested on: Streptococcus sp. 'group A'; experiment: Streptococcus pyogenes SK(-)GAS viability under kanamycin – luminescence, BacTiterGlo, confirmation, counter-screen for streptokinase expression inhibitor project, dose response (AID 1900); assay type: functional, organism-based
[5] = target: T2, Streptokinase A (Streptococcus pyogenes serotype M1, UniProt P10520); experiment: viability-normalized secreted streptokinase activity reduction – plasminogen activation absorbance, OD405, dose response (AID 1914); assay type: functional, Streptococcus pyogenes M1 GAS;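 further: secreted streptokinase activity via plasminogen activation per viability signal from cell pellet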
T2 sequence (P10520 whole entry): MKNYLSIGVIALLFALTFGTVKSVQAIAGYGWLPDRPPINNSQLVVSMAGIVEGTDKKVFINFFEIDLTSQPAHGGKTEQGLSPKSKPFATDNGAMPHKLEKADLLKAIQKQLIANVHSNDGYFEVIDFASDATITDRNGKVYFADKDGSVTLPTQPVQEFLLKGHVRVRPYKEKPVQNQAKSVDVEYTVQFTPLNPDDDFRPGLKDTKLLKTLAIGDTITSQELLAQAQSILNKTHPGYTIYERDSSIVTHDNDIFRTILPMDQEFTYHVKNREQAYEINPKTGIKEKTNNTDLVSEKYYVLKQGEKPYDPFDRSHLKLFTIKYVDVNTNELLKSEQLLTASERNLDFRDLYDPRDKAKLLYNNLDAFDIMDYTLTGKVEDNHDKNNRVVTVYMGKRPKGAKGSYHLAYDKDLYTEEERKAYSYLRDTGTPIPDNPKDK

[6] = Trypanosoma cruzi growth suppression in host cells – NIH3T3 host cells, beta-gal luminescence, confirmation (AID 2044); assay type: functional, cell-based;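 further: intracellular parasites grown in NIH/3T3 mouse fibroblasts as host cells; luminescent beta-galactosidase reporter signal from transgenic T. cruzi replicating inside host cells; inhibitors lower the luminescence signal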
[7] = NIH3T3 cell viability loss – ATP luminescence, mouse fibroblasts, counter-screen, dose response (AID 2010); assay type: functional, cell-based;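 further: cells exposed to compound for about 90 hours before reading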
[8] = tested on: Streptococcus; experiment: GAS UMAA2166 growth inhibition – luminescence, BacTiterGlo, counter-screen for streptokinase expression inhibitor project, dose response (AID 1915); assay type: functional, organism-based;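 further: potency for reduction of bacterial viability or growth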
[9] = target: Nuclear receptor subfamily 5 group A member 2 (Homo sapiens, UniProt O00482); assay type: functional, cell-based;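 further: HEK293T cells transfected with LRH-1 and a StAR promoter luciferase reporter; potency for inhibitors that lower LRH-1 driven reporter light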
Nuclear receptor subfamily 5 group A member 2, sequence (O00482 whole entry): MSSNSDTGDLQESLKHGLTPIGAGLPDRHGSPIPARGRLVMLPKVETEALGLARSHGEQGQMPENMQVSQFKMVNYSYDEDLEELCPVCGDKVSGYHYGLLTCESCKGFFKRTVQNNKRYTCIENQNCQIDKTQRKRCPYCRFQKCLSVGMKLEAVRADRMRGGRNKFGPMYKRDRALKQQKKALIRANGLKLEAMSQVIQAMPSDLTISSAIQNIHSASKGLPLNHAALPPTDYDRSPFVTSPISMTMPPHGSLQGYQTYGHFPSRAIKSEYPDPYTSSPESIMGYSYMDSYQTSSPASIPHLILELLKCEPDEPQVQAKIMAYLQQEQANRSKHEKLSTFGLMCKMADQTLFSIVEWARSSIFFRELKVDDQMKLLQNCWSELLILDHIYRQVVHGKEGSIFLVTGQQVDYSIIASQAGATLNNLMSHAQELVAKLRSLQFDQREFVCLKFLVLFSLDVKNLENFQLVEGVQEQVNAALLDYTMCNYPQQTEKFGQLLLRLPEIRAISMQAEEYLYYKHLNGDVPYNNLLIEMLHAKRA

[10] = target: Steroidogenic factor 1 (Homo sapiens, UniProt Q13285); experiment: Counterscreen for inverse agonists of the liver receptor homolog-1 (LRH-1; NR5A2): Luminescence-based cell-based high throughput dose response assay to identify inverse agonists of the Steroidogenic Factor 1 Nuclear Receptor (SF1; NR5A1).; assay type: functional
Steroidogenic factor 1, sequence (Q13285 whole entry): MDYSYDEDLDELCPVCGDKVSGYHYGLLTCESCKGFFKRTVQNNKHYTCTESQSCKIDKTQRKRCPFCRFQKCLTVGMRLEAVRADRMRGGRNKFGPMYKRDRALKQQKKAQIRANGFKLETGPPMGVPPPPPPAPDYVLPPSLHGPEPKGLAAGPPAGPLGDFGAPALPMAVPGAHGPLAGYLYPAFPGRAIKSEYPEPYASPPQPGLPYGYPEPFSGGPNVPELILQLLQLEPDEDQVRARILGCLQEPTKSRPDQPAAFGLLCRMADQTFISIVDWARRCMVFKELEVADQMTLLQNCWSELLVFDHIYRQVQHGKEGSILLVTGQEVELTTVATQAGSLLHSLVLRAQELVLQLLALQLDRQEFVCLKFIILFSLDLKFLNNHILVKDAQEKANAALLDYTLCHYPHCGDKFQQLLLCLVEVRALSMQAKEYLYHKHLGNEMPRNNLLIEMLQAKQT

[11] = nonselective StAR promoter luciferase inhibitors – cell-based, luminescence, luciferase reporter, counter-screen for LRH-1 inverse agonist project, dose response (AID 651969); assay type: functional
[12] = blockers of HIV-1 envelope-mediated cell-cell fusion – cherry-pick, dose response (AID 652057); assay type: functional, cell-based
[13] = blockers of HIV-1 ZM109 envelope-driven cell-cell fusion – HeLa effector, CEM target cells, luciferase, cherry-pick, dose response (AID 652058); assay type: functional, cell-based;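 further: luciferase signal from HIV-1 Env mediated cell-cell fusion of effector and target cells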
[14] = off-target signal loss in HeLa-CEM21 co-culture – HeLa F-luc CTL cells, cherry-picked, counter-screen for HIV-1 Env fusion inhibitor project, dose response (AID 652040); assay type: functional, cell-based;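 further: potency for signal decrease marking cytotoxic or nonspecific inhibition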
[15] = HIV-1 AD8 envelope cell-cell fusion blockers – cherry-pick, dose response (AID 652062); assay type: functional, cell-based;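 further: luciferase signal from cell-cell fusion driven by HIV-1 clade B AD8 Env; potency is for inhibitors of fusion seen as a drop in luminescence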
[16] = blockade of melanocortin 4 receptor signaling – cell-based, plate reader, cherry pick, counter-screen for LGR2 antagonist project, dose response (AID 743444); assay type: functional;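 further: transfected HEK 293 cells stimulated with alpha-MSH peptide; potency of inhibitors of the alpha-MSH evoked signal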
[17] = target: T3, Replicative DNA helicase DnaB (Mycobacterium tuberculosis, UniProt P9WMR3); experiment: DnaB intein splicing inhibitors, dose response, biochemical, cell-free fluorescence (AID 449749); assay type: functional
T3 sequence (P9WMR3 whole entry): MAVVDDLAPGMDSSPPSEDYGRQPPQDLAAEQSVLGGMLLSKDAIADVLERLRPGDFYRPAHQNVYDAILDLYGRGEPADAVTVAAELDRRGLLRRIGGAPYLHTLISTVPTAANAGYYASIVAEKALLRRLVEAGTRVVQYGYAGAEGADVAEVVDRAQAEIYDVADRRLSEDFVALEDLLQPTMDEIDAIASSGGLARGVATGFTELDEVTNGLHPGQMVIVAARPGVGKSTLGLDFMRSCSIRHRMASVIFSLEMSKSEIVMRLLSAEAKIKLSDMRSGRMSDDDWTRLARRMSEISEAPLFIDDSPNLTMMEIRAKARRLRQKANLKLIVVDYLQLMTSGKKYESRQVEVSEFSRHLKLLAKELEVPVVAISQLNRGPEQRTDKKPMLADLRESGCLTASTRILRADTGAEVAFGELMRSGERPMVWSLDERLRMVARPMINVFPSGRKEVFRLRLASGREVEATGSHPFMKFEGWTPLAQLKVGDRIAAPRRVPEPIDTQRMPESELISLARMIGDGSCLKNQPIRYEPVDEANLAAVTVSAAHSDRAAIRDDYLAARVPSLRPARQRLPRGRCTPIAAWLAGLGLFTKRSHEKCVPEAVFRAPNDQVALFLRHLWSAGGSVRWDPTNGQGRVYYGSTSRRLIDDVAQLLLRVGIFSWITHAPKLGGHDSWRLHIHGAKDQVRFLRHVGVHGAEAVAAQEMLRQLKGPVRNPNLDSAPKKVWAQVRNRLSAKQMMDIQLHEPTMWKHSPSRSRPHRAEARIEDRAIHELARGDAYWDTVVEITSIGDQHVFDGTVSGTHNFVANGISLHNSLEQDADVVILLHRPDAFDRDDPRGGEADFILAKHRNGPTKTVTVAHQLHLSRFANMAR

[18] = target: T4, Protein RecA (Mycobacterium tuberculosis, UniProt P9WHJ3); experiment: Fluorescence Cell-Free Homogeneous Dose Retest to Identify Inhibitors of RecA-Intein Splicing Activity. [Related pubchem assays (depositor defined):AID2097, AID2223, AID489010, AID492950]; assay type: functional
T4 sequence (P9WHJ3 whole entry): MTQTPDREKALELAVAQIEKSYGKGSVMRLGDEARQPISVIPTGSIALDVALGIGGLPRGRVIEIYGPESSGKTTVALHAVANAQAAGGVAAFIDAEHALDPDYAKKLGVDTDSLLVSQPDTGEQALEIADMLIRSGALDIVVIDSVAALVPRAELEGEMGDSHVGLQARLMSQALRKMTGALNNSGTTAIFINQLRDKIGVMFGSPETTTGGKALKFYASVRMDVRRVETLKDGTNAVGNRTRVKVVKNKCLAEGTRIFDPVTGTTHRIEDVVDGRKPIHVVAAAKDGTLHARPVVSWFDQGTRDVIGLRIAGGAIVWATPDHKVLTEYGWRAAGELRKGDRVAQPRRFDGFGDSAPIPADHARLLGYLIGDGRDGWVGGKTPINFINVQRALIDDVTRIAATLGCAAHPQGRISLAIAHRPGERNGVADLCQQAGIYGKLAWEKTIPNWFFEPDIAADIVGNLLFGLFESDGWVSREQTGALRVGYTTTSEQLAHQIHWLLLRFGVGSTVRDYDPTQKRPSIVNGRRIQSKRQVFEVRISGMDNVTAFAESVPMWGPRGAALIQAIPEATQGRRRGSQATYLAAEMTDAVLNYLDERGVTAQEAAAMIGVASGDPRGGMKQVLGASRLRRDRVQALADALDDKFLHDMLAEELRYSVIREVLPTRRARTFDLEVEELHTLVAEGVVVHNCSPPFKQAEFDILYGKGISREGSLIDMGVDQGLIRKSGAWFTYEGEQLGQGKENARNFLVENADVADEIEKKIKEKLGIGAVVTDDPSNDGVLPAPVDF

[19] = cells; assay type: functional, cell-based
[20] = cells; assay type: functional, cell-based; remark: listed apart in the source
[21] = tested on: INS1; experiment: INS-1E survival protection against cytokine death – cell-based, luminescence, retest, dose response (AID 449756); assay type: functional; settings: Rattus norvegicus;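 further: cell death triggered by IL-1 beta plus TNF-alpha plus IFN-gamma mixture; protective hits raise ATP signal compared with cytokine alone wells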

Genome polyprotein, sequence (P29990 2492-3391 limits assumed): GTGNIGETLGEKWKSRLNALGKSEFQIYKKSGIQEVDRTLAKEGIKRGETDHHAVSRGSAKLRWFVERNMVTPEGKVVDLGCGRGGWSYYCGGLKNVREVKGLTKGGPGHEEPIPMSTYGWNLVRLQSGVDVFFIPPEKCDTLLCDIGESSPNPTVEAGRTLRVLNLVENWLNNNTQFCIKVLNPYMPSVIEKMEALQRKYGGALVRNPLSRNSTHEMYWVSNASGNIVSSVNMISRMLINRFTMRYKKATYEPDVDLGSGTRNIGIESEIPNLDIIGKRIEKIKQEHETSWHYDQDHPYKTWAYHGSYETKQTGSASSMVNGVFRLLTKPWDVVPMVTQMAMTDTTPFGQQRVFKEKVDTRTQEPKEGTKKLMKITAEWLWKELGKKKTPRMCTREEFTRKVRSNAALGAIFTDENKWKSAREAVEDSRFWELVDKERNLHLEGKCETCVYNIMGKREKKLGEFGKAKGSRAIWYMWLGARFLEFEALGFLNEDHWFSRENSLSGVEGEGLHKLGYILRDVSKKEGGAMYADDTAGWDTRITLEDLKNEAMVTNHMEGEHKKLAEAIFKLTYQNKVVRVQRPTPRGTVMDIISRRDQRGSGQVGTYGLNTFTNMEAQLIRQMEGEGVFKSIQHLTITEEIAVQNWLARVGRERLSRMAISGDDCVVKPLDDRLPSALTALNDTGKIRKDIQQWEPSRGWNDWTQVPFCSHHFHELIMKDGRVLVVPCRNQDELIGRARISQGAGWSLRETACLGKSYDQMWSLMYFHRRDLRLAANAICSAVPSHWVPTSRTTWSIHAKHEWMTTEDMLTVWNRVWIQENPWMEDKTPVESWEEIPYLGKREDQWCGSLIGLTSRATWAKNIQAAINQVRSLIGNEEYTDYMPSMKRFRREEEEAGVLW

| Structure (SMILES) | AC50 [3] | IC50 [9] | IC50 [10] | IC50 [11] | other results |
| --- | --- | --- | --- | --- | --- |
| O=C1/C(=C2\C(=O)N(Cc3ccc(F)cc3)c3ccccc32)SC(=S)N1CCS(=O)(=O)O |  |  |  |  | IC50 [1]: 32.5 µM (active) |
| Cc1nnc(SCC(=O)N2CCC(c3noc4ccc(F)cc34)CC2)s1 | 9.92 µM (active) |  |  |  | IC50 [2]: 39.1 µM (active) |
| C=CCn1c(=O)/c(=C/c2ccc(Cl)cc2)s/c1=C(\C#N)c1nnc2n1CCCCC2 | 23.9 µM (active) |  |  |  |  |
| Cc1ccc(-c2csc(NC(=O)c3ccc([N+](=O)[O-])o3)n2)cc1 |  | 35.9 µM (inactive) | 4.48 µM (active) | 35.9 µM (inactive) | EC50 [4]: 1.89 µM (active); EC50 [5]: 62.4 µM (active); EC50 [6]: 0.37 µM (active); EC50 [7]: 12.2 µM (active); EC50 [8]: > 150 µM (not active) |
| Cc1cccc(CN2C(=O)CSc3ccc(C(=O)NC4CC4)cc32)c1 |  | 1.89 µM (active) | 1.21 µM (active) | 20.1 µM (inactive) |  |
| CC[C@]1(C(=O)OC)[C@H]2C(=O)N(Cc3ccccc3)C(=O)[C@H]2[C@H]2CN=C(SCc3ccc(C#N)cc3)N21 | 4.97 µM (active) |  |  |  | AC50 [12]: 0.709 µM (active); AC50 [13]: 1.07 µM (active); AC50 [14]: 1.45 µM (active); AC50 [15]: 5.1 µM (active) |
| O=C(CN1CCOc2ccccc21)NCc1ccc(F)cc1 |  |  |  |  | AC50 [16]: 29.2 µM (active) |
| Cc1[nH]n(-c2ccccc2)c(=O)c1C(c1ccccc1[N+](=O)[O-])C(C#N)C#N (stereo not given) |  |  |  |  | AC50 [17]: 3.3 µM (active); EC50 [18]: 7.28 µM (active); IC50 [1]: 86.4 µM (active) |
| CC(=O)Nc1cc(-c2cccc(F)c2)cn2c(-c3ccc(S(C)(=O)=O)cc3)cnc12 |  | 5.75 µM (active) | 2.36 µM (active) | 31.1 µM (inactive) |  |
| N#Cc1ccc(-c2csc(NNC(=O)c3ccc(Br)cc3)n2)cc1 | 8.39 µM (active) |  |  |  | EC50 [19]: > 350 µM (not active); EC50 [20]: > 350 µM (not active); AC50 [21]: 7.72 µM (active) |
| Cc1ccc(NC(=O)CSc2sc3c(O)cc(O)nc3c2C#N)c(F)c1 |  | 35.9 µM (inactive) | 35.9 µM (inactive) | 35.9 µM (inactive) |  |
| CCOc1cc(/C=N/n2nnnc2N)ccc1OCc1c(C)no[n+]1[O-] |  | 11.8 µM (inactive) | 2.22 µM (active) | 35.9 µM (inactive) |  |
| Cc1nnc(SCC(=O)Nc2ccc(Br)cc2)n(N)c1=O |  | 35.9 µM (inactive) | 20.1 µM (inactive) | 35.9 µM (inactive) |  |

From ChEMBL document CHEMBL1201862, “PubChem BioAssay data set” (2004)
